Measurements from US11185593B2, “Alkylating agent for alkylating target with driver oncogene mutation” (Chiba Prefecture, priority 2013, dated 2021).

Experiments:
LS180 (KRAS-MUThetero) = assay: Suppression of tumor growth in nude mice, LS180 transplanted; format: in vivo; conditions: nude mice with LS180 cells; 3.4 mmol KR12 via the caudal vein; FIG. 14B
Description: (§1) The below-mentioned 3 types of PBS solutions containing each type of cells were subcutaneously transplanted into the femurs of nude mice (i.e., HT29 into 7 mice, LS180 into 7 mice, and SW480 into 6 mice), and thereafter, at a time point in which a tumor adhered to the living body of each mouse and the tumor volume became approximately 100 mm^3, a drug was prepared with a composition of 3.4 mmol KR12 (1.36 mM KR12 dissolved in 2.5 μL of DMSO and 197.5 μL of PBS), or of a DMSO/PBS control (2.5 μL of DMSO and 197.5 μL of PBS). The prepared drug was subjected to sonication for 10 minutes, and 200 μL of the drug was administered to each mouse via the caudal vein thereof. The body weight and the tumor size were measured once three days, and the size of the tumor was measured by the method of 0.52×L×W×D(1/6×π×L×W×D).
LS180 (KRAS-MUThetero): (transplanted in an amount of 3×10^6 cells/100 μl PBS into the subcutis of each mouse; a cell line having a heterozygous KRAS gene codon 12 mutation G12D)

[1] = tested on: active-type KRAS proteins (p21-ras proteins); assay: Measurement of RAS activity (RAS activation assay kit); format: cell-based, human; conditions: LS180, 50 nM, 48 hours, FIG. 12A
Description: Cells (the number of cells: 2×10^6 cells/100 mm plate or 1×10^6 cells/100 mm plate) were cultured in a complete nutrient medium, and on the following day, the cultured cells were treated with 50 nM KR12 or KR13, followed by culture for 48 hours. Thereafter, the resulting cells were dissolved in a magnesium lysis buffer (MLB), and a RAS activity level was then measured using a RAS activation assay kit (Millipore, MA).

[2] = tested on: mutant codon 12 KRAS gene and wild-type KRAS gene in LS180; assay: Colony PCR with allele specific primers, LS180; format: cell-based, human; conditions: for MUT (number of mutant gene colonies) / WT (number of wild-type gene colonies): LS180, 50 nM, 48 hours, colony PCR, Table 3
Description: Using primers that specifically amplify the GAT mutant gene of KRAS codon 12 (KRAS-MUT-F and KRAS-MUT-R) and the wild-type genes thereof (KRAS-WT-F and KRAS-WT-R), PCR was carried out directly on the Escherichia coli cells in the above-described white colonies. Whether each colony was a mutant KRAS gene or a wild-type KRAS gene was determined, depending on by which primer set the band of interest was amplified.
KR12, which was considered to specifically alkylate the KRAS mutant codon 12 gene, was administered to a heterozygous colon cancer cell line LS180 having both a mutant codon 12 KRAS gene and a wild-type KRAS gene. Forty-eight hours later, RNA was extracted, and the KRAS gene was then quantitatively amplified. The amplified gene was cloned into a plasmid, using a TA cloning kit, and the obtained plasmid was then introduced into competent cells. Thereafter, by performing blue-white selection using an LB/amp/IPTG/X-Gal plate, white colonies having inserts were picked up, and then, the presence or absence of a colon 12 mutation in each colony was examined by direct sequencing or by a colony PCR method.

HT29 (KRAS-WT) = assay: Suppression of tumor growth in nude mice, HT29 transplanted; format: in vivo; conditions: nude mice with HT29 cells; 3.4 mmol KR12 via the caudal vein; FIG. 14A
Description: as §1
HT29 (KRAS-WT): (transplanted in an amount of 2×10^6 cells/100 μl PBS into the subcutis of each mouse; a wild-type KRAS codon 12 cell line having no codon 12 mutations)

[3] = Mass spectrometry of mouse urine and mouse bile for KR12 and decomposed product; format: in vivo
Description: The FITC-labeled KR12 (10 nmol) was administered into the vein of nude mice, into which SW480 cells had been transplanted, and thereafter, their fluorescent image was observed over time. […] Thereafter, twenty-four hours after the administration, the mice were dissected, and incorporation of FITC into various organs was observed. […] Furthermore, localization of KR12 in the cells of tumor, liver, and kidney was observed under a fluorescence microscope. […] The presence of absence of HR12 and a decomposed product thereof in mouse urine and mouse bile was examined by mass spectrometry. […] In the case of tumor cells, lipids are required for the synthesis of a cell membrane or the like, together with cell division, and thus, in general, incorporation of lipids is increased. In addition, excretion via the lymphatics is undeveloped. […] Such accumulation of KR12 in the liver and the kidney is observed even in normal cells. However, since KR12 cannot retain in the cells, it is discharged into bile and/or urine, and is then excreted from these organs. That is, KR12 has excellent effects that it is promptly discharged from normal cells and retains in cancer cells for a long period of time.

[4] = tested on: γH2AX, p53, PARP in LS180 cells; assay: Western analysis of markers of DNA damage and cell death (apoptosis); format: cell-based, human; conditions: LS180, 50 nM, 14 days, FIG. 10C
Description: LS180 cells, which had been subjected to a long-term treatment experiment and had been treated with 50 nM KR12 or KR13 (dissolved in 0.125% DMSO) for 14 days, were dissolved in a 1×SDS-sample buffer. The obtained solution was treated at 100° C. for 5 minutes. The protein amount was estimated using Bradford reagent (Bio-Rad, CA), and was then electrophoresed by 10% SDS-PAGE. After that, the protein was transferred onto polyvinylidene difluoride membranes (Millipore, MA), and using 5% dry milk in Tris-buffered saline (TBS) plus 0.1% Tween 20 as a blocking agent, anti-γH2AX (2F3, BioLegend, CA), anti-p53 (DO-1, Santa Cruz Biotechnology, CA), anti-PARP (Cell Signaling Technologies, MA), or anti-actin antibody (20-33, Sigma, MO) was added to lanes, and the protein was further treated with HRP-conjugated anti-mouse IgG or anti-rabbit IgG (Cell Signaling Technologies, MA). Before the treatment with a secondary antibody, the primary antibody was washed, as appropriate. Thereafter, the protein was washed with TBS plus 0.1% Tween 20, and it was then identified by […] chemiluminescence (ECL) (Amersham Biosciences, NJ).

[5] = tested on: mutant KRAS genes and wild-type KRAS genes in PANC-1; assay: Colony analysis of KRAS transcripts, PANC-1; format: cell-based; conditions: for MUT (number of mutant gene colonies) / WT (number of wild-type gene colonies): PANC-1, Table 4

| Compound | tumor growth (LS180 (KRAS-MUThetero)) | activity of the detected KRAS protein (RAS activity level) [1] | MUT (number of mutant gene colonies) [2] | WT (number of wild-type gene colonies) [2] | expression levels of mutant cancer genes ([2]; LS180, colony PCR) | tumor growth (HT29 (KRAS-WT)) | metabolic degradation of excreted compound [3] | DNA damage marker γH2AX [4] | cleavage of the PARP protein [4] | induction of p53 [4] | MUT (number of mutant gene colonies) [5] | WT (number of wild-type gene colonies) [5] | expression levels of the mutant KRAS genes relative to wild-type KRAS genes ([5]; PANC-1, control group mutant 3-fold higher than wild-type) | induction of DNA damage and cell death [4] |
| --- | --- | --- | --- | --- | --- | --- | --- | --- | --- | --- | --- | --- | --- | --- |
| CC(=O)Nc1cn(C)c(C(=O)Nc2cc(C(=O)NCCC(=O)Nc3cn(C)c(C(=O)Nc4cn(C)c(C(=O)Nc5cc(C(=O)Nc6cn(C)c(C(=O)NCCCC(=O)Nc7cc(C(=O)Nc8cn(C)c(C(=O)NCCC(=O)Nc9cc(C(=O)Nc%10cc(C(=O)Nc%11ccc%12[nH]c(C(=O)N%13CC(CCl)c%14c%13cc(O)c%13ccccc%14%13)cc%12c%11)n(C)c%10)n(C)c9)n8)n(C)c7)n6)n(C)c5)n4)n3)n(C)c2)n1 (stereo not drawn) [KR12] | significantly suppressed | decreased | 11 | 27 | the expression levels of mutant cancer genes were decreased | could not be suppressed | discharged in a state in which it was not subjected to metabolic degradation | induced | the cleavage of the PARP protein was observed | induction of p53 was also observed | 24 | 21 | decreased to the same levels of the wild-type KRAS genes | – |
| CC(=O)Nc1cn(C)c(C(=O)Nc2cn(C)c(C(=O)Nc3cc(C(=O)Nc4cn(C)c(C(=O)NCCC(=O)Nc5cc(C(=O)Nc6cn(C)c(C(=O)NCCCC(=O)Nc7cc(C(=O)Nc8cn(C)c(C(=O)Nc9cc(C(=O)NCCC(=O)Nc%10cc(C(=O)Nc%11ccc%12[nH]c(C(=O)N%13CC(CCl)c%14c%13cc(O)c%13ccccc%14%13)cc%12c%11)n(C)c%10)n(C)c9)n8)n(C)c7)n6)n(C)c5)n4)n(C)c3)n2)n1 (stereo not drawn) [KR13] | – | – | 13 | 14 | – | – | – | – | – | – | 18 | 8 | – | significant induction of DNA damage and cell death was not observed |
